Data on 28 molecules can be found in patent US8778966B2, “Quinolinone derivatives as PARP and tank inhibitors” (Janssen Pharmaceutica, NV, priority 2007, dated 2014).

The target of the assay is T1, Human PARP-1 enzyme (Homo sapiens, UniProt P09874).
T1 construct: purchased Trevigen
Put plainly: In vitro Scintillation Proximity Assay (SPA) for PARP-1 inhibitory activity. As to conditions: read-out: in vitro SPA assay PARP-1 pIC50 (converted). Format: biochemical. Summed up:
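SPA assay: nicked-DNA-activated PARP-1 (0.1–0.2 μg/ml) ADP-ribosylates biotinylated histones (2 μg/ml) using [3H]-NAD+, 20 min at RT in Tris pH 8/DTT/MgCl2, stopped with 2 mM NAD+. Blank-subtracted cpm expressed as % control; IC50 by linear interpolation, reported as pIC50 (10−5 to 3×10−9 M tested).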

T1 sequence (P09874 whole entry): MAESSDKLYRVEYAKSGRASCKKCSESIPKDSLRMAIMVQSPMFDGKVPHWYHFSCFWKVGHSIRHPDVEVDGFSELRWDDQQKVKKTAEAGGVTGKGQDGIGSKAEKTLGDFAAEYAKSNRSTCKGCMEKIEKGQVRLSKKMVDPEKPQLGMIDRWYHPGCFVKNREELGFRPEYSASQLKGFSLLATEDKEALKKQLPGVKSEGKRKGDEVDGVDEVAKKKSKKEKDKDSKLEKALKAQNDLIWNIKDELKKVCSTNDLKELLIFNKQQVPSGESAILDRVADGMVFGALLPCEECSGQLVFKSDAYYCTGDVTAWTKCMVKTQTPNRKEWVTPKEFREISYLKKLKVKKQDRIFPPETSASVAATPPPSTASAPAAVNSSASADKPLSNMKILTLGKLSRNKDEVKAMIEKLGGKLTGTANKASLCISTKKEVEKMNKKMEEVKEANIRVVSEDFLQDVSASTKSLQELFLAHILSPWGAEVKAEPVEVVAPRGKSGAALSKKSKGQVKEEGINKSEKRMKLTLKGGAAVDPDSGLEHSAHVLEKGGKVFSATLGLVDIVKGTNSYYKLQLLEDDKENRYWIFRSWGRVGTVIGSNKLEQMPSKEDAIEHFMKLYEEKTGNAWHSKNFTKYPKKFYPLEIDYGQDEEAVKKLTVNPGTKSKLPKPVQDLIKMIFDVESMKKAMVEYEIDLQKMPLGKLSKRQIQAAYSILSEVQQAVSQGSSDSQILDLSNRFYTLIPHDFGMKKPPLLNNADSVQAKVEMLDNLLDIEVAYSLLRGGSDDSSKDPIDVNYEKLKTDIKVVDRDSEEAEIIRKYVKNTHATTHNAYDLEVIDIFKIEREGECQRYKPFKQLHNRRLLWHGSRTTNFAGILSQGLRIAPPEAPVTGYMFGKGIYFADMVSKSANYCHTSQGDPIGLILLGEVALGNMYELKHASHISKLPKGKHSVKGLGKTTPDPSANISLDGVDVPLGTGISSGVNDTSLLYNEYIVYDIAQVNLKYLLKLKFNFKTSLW

As for `CCc1cc2ccc(C(C)(C#N)Cc3cccc(S(F)(F)(F)(F)F)c3)cc2[nH]c1=O` (stereo not shown) [Compound 177], the IC50 is 0.0794 µM. For `CCc1cc2ccc(C(C)(C#N)Cc3cccc(I)c3)cc2[nH]c1=O` (stereo not shown) [Compound 19], the IC50 was 1 µM. The result for `CCc1cc2ccc(C(C)(C#N)Cc3ccc(Cl)nc3OC)cc2[nH]c1=O` (stereo not shown) [Compound 225] reads 0.0398 µM; that for `CCc1cc2ccc(C(C)(C#N)Cc3cccc(OCCOC)c3)cc2[nH]c1=O` (stereo not shown) [Compound 24], 0.631 µM; that for `CCc1cc2ccc(C(C)(C#N)Cc3ccnc(F)c3)cc2[nH]c1=O` (stereo not shown) [Compound 330], 0.0398 µM. The result for `CCc1cc2ccc(C(C)(C#N)CCOc3ncc(Br)cn3)cc2[nH]c1=O` (stereo not shown) [Compound 349] reads 0.0631 µM. For `CCOc1cc(N(C)C)nc(CC(C)(C#N)c2ccc3cc(CC)c(=O)[nH]c3c2)n1` (stereo not shown) [Compound 312] the value was 0.0398 µM.

`Cc1cc2ccc(C(C)(C#N)Cc3cccc(Oc4ccccn4)c3)cc2[nH]c1=O` (stereo not shown) [Compound 304]: the IC50 was 0.1 µM. Regarding `C=C(C)c1cccc(CC(C)(C#N)c2ccc3cc(CC)c(=O)[nH]c3c2)c1` (stereo not shown) [Compound 254], the IC50 is 0.0316 µM. For `Cc1cc2ccc([C@@](C)(C#N)[C@H]3CCc4cc(Br)ccc43)cc2[nH]c1=O` [Compound 241] the value was 0.2 µM; for `Cc1cc2ccc([C@@](C)(C#N)[C@H]3CCc4ccc(Br)cc43)cc2[nH]c1=O` [Compound 405], 0.316 µM. Take `Cc1cc2ccc([C@](C)(C#N)[C@H]3CCc4ccc(Br)cc43)cc2[nH]c1=O` [Compound 407]: the IC50 was 0.631 µM. For `COc1cc2ccc(C(C)(C#N)Cc3cccc(C#N)n3)cc2[nH]c1=O` (stereo not shown) [Compound 218], the IC50 was 0.631 µM. For `CCc1cc2ccc(C(C)(C#N)CN3CCc4ccccc4C3)cc2[nH]c1=O` (stereo not shown) [Compound 376] the value was 0.158 µM. The result for `CCc1cc2ccc(C(C#N)(CC)Cc3cccc(OC)c3)cc2[nH]c1=O` (stereo not shown) [Compound 287] reads 0.0398 µM. With `Cc1cc2ccc(C(C)(C#N)C3CCc4c(C#N)cccc43)cc2[nH]c1=O` (racemic) [Compound 393], the IC50 is 0.1 µM. On to `Cc1cc2ccc(C(C)(C#N)C3CCc4ccc(C#N)cc43)cc2[nH]c1=O` (stereo not shown) [Compound 250], for which the IC50 was 0.1 µM. For `Cc1cc2ccc([C@@](C)(C#N)[C@@H]3CCc4cc(Br)ccc43)cc2[nH]c1=O` [Compound 240] the value was 0.2 µM; for `CCc1cc2ccc(C(C)(C#N)Cc3cccc(C4(N)CC4)c3)cc2[nH]c1=O` (stereo not shown) [Compound 180], 0.0251 µM. For `CCc1cc2ccc(C(C)(C#N)Cc3cccc(N4CCCC4)n3)cc2[nH]c1=O` (stereo not shown) [Compound 226], the IC50 was 0.0501 µM. As to `Cc1cc2ccc(C(C)(C#N)C3CCc4c(Br)cccc43)cc2[nH]c1=O` (stereo not shown) [Compound 248], the IC50 was 0.0794 µM. With `CCc1cc2ccc(C(C)(C#N)Cc3cccc(N(C)C)c3)cc2[nH]c1=O` (stereo not shown) [Compound 20], the IC50 was 0.398 µM. The result for `CCc1cc2ccc(C(C)(C#N)CN3CCN(c4ncc(Br)cn4)CC3)cc2[nH]c1=O` (stereo not shown) [Compound 374] reads 0.1 µM. On to `CCc1cc2ccc(C(C)(C#N)Cc3ccnc(Cl)c3)cc2[nH]c1=O` (stereo not shown) [Compound 341], for which the IC50 is 0.0631 µM. For `CCc1cc2ccc(C(C)(C#N)Cc3ccc(C(F)(F)F)nc3C)cc2[nH]c1=O` (stereo not shown) [Compound 340] the value was 0.1 µM; for `Cc1cc2ccc(C(C)(C#N)Cc3cccc(Oc4ccccc4)n3)cc2[nH]c1=O` (stereo not shown) [Compound 193], 0.1 µM.

Take `Cc1cc2ccc(C(C)(C#N)C3CCc4cc(Br)ccc43)cc2[nH]c1=O` (stereo not shown) [Compound 244]: the IC50 is 0.2 µM. The result for `CCc1cc2ccc(C(C#N)(CC)C3CCc4ccc(OC)cc43)cc2[nH]c1=O` (stereo not shown) [Compound 403] reads 0.501 µM.
